≈ marks a conversion by molar mass, not a printed value.
Key:
[1] = test system: MDA-MB-231 cells; assay: Anticancer drug screening in the Micro-Gap Plate (MGP), viability by tri-fluorescent staining; type: cell-based; conditions: Homo sapiens, 24 hour drug treatment, viability normalized against untreated cells, read-out: IC50 (concentration yielding a 50% decrease in normalized percentage cell viability)
Description: (§1) The anticancer drug screening of cell lines was conducted with MGP and on 96-well plates as control. Two typical breast cancer lines, MCF-7 (ATCC, HTB-22) and MDA-MB-231 (ATCC, HTB-26) were used. The reason to choose the two types of cancer cell lines was that MCF-7 stood for typical luminal type cancer cells while MDA-MB-231 stood for normal-like typically. By using the two cell lines in drug response assay on the microfluidic device, we could examine whether MGP was workable to both the two types of cancer cells since primary samples may have diversely cancer cell types. Anticancer drug screening using cell lines could confirm the feasibility of applying MGP to individualized chemosensitivity assay on primary patient samples. In addition, cell lines on MGP could help optimize the operation of drug response assay beforehand, which would reduce the difficulties when dealing with primary samples. Moreover, the method of viability assessment could be examined on MGP using cell lines since fluorescent images was one of most important factors to determine the viability of cancer cells after drug treatment. […]
Primary cells were suspended (16.7 cells/0.1 μL) in culture medium (the formula of culture medium is stated in the previous section). […] The volume of cell suspension in each unit was determined on the basis of the final density of cell suspension as stated in previous section. […]

[2] = test system: MDA-MB-231 cells; assay: Anticancer drug screening in 96-well plates (control), MTT assay; type: cell-based; conditions: Homo sapiens, 96-well control, 24 hour drug treatment, read-out: IC50 (concentration yielding a 50% decrease in normalized percentage cell viability)
Description: as §1, with “samples.” for “samples. Moreover, the method of viability assessment could be examined on MGP using cell lines since fluorescent images was one of most important factors to determine the viability of cancer cells after drug treatment.”
Anticancer drug screening was also conducted using conventional 96-well plates as controls. […] The quantity of cells in single well was determined to coordinate the same cell-to-substrate ratio as in MGP (1000 cells/1.766 mm2). […] Finally, a plate reader (MQX 200, BioTek) was used to determine the absorbance of the DMSO at 570 nm, which was used to determine the number of living cells. […]

CC(=O)O[C@@]12CO[C@@H]1C[C@H](O)[C@@]1(C)C(=O)[C@H](O)C3=C(C)[C@@H](OC(=O)[C@H](O)[C@@H](NC(=O)OC(C)(C)C)c4ccccc4)C[C@@](O)([C@@H](OC(=O)c4ccccc4)[C@H]21)C3(C)C [docetaxel]
IC50 [1]: 23.4 µg/mL (≈ 29 µM)
IC50 [2]: 25.4 µg/mL (≈ 31.4 µM)

— US20160354781A1, “MICROFLUIDIC PLATE FOR SAMPLE PROCESSING” (National Taiwan University, priority 2015, published 2016)
